Where two headings read alike, the source gives them in different places.
What was measured:
Type in all cases: in vitro ADME
CYP2B6 = CYP2B6 (Homo sapiens (Human), UniProt P20813); assay: CYP inhibition assay in mixed human liver microsomes; settings: mixed (pooled) human liver microsomes, read-out: Inhibition rate % CYP2B6
Method: (§1) The inhibitory effects of the compounds on seven enzymes, i.e., CYP1A2, CYP2C9, CYP2C19, CYP2D6, CYP3A4 (midazolam), CYP2B6, and CYP2C8, were evaluated at a concentration of 10 μM. Mixed human liver microsomes, which were previously stored in a −80° C. refrigerator before use, were taken out and thawed in a water bath at 37° C. before use, and placed on ice for further operation. 100 μL of microsome working solution was taken, and added with 2 μL of test product or positive inhibitor working solution. 2 μL of solvent was added to the solvent control. The mixture was pre-incubated in a water bath at 37° C. for 10 minutes. After preincubation, 98 μL of NADPH regeneration solution was added to all samples to initiate the reaction. Then, the samples were put back into the water bath and incubated for a period of time. The reaction was quenched with 200 μL of stop solution. The plate was centrifuged at 3,220 g for 10 minutes, 100 μL of supernatant was transferred, and 100 μL of water was added and mixed well to the assay plate for LC/MS/MS analysis.

CYP1A2 = CYP1A2 (Homo sapiens (Human), UniProt P05177); assay: as above
Method: as §1

CYP2C9 = CYP2C9 (Homo sapiens (Human), UniProt P11712); assay: as above; settings: mixed (pooled) human liver microsomes, read-out: Inhibition rate % CYP2C9
Method: as §1

CYP2C8 = CYP2C8 (Homo sapiens (Human), UniProt P10632); assay: as above; settings: mixed (pooled) human liver microsomes, read-out: Inhibition rate % CYP2C8
Method: as §1

CYP3A4 = CYP3A4 (Homo sapiens (Human), UniProt P08684); assay: as above; settings: mixed (pooled) human liver microsomes, probe midazolam, read-out: Inhibition rate % CYP3A4 (midazolam)
Method: as §1

CYP2D6 = CYP2D6 (Homo sapiens (Human), UniProt P10635); assay: as above; settings: mixed (pooled) human liver microsomes, read-out: Inhibition rate % CYP2D6
Method: as §1

CYP2C19 = CYP2C19 (Homo sapiens (Human), UniProt P33261); assay: as above; settings: mixed (pooled) human liver microsomes, read-out: Inhibition rate % CYP2C19
Method: as §1

[1] = Liver microsome stability assay; settings: Human liver microsomes, NADPH, 37° C.; read-out: T1/2 (min) Human
Method: The human liver microsome stability assay was performed by co-incubating the compound with human liver microsomes in vitro. The test compounds were first prepared as 10 mM stock solutions in DMSO solvent, and then diluted to 0.5 mM with acetonitrile. Human liver microsomes (Corning) were diluted with PBS to prepare a microsome/buffer solution, and this solution was used to dilute 0.5 mM of the compound to prepare a working solution. In the working solution, a concentration of the compound was 1.5 μM and a concentration of the human liver microsome was 0.75 mg/ml. A deep-well plate was taken, 30 μL of working solution was added to each well of the plate, and then 15 μL of pre-heated NADPH solution (6 mM) was added to start the reaction. The mixture was incubated at 37° C. 135 μL of acetonitrile was added to the corresponding wells to stop the reaction at 0 minute, 5 minutes, 15 minutes, 30 minute, and 45 minutes of incubation. Subsequent to the stop of the reaction by means of acetonitrile at the last time point of 45 minute, the plate was vortexed for 10 minutes (600 rpm/min) and then centrifuged for 15 minutes. […] The peak area ratios of the compound at 5 minutes, 15 minutes, 30 minutes, and 45 minutes were compared with the peak area ratio at 0 minute, and the remaining percentage of the compound at each time point was calculated. T1/2 was calculated using Graphpad8 software.

[2] = Bidirectional permeability study in CACO-2 cells; settings: human, pH 7.4, Caco-2 monolayer, pH 7.40
Method: Caco-2 cells were inoculated onto polyethylene membrane (PET) in 96-well inserted plates at a rate of 1×10^5 cells/cm^2, and the medium was changed every 4 to 5 days until day 21 to 28, to form a fused cell monolayer. The transport buffer in the assay was HBSS and 10.0 mM HEPES, with a pH of 7.40±0.05. The test compounds were subjected to a bidirectional test at 2.00 μM in the presence and absence of GF120918 (10.0 μM). Digoxin was subjected to a bidirectional test at 10.0 μM in the presence and absence of GF120918 (10.0 μM), while Nadolol and Metoprolol were subjected to a test from direction A to direction B at 2.00 μM in the absence of GF120918 (10.0 μM). The above tests were performed in duplicate. The final concentration of DMSO was adjusted to be lower than 1%. The plate was incubated in a CO2 incubator at 37° C.±1° C. for 2 hours, and 5% CO2 was added under saturated humidity without shaking. All the samples, after being mixed with acetonitrile containing internal standard, were centrifuged at 3,200 g for 10 minutes. […] The concentrations of the test compounds and control compounds in the starting solution, the donor solution, and the acceptor solution were quantified by LC-MS/MS based on a peak area ratio of the analyte to the internal standard.
After the transport assay, the integrity of the Caco-2 cell monolayer was determined using Lucifer Yellow Exclusion Assay.

[3] = Liver microsome stability assay; settings: dog; Canine liver microsomes; read-out: T1/2 (min) Canine

Sequence of CYP2C9 (P11712 whole entry): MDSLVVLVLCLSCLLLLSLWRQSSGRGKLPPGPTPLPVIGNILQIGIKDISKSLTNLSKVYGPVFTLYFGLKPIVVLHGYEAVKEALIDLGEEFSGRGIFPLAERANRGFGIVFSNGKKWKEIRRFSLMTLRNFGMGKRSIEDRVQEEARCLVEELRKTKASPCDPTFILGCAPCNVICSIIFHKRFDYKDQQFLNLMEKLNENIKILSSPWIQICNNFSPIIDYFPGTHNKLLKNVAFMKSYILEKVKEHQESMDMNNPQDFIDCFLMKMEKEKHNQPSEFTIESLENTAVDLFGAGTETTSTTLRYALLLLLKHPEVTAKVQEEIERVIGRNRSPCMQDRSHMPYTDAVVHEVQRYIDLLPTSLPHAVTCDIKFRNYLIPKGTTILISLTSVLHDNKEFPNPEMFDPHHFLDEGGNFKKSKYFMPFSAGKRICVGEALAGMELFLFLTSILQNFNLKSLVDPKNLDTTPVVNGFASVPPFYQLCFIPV
Sequence of CYP2C8 (P10632 whole entry): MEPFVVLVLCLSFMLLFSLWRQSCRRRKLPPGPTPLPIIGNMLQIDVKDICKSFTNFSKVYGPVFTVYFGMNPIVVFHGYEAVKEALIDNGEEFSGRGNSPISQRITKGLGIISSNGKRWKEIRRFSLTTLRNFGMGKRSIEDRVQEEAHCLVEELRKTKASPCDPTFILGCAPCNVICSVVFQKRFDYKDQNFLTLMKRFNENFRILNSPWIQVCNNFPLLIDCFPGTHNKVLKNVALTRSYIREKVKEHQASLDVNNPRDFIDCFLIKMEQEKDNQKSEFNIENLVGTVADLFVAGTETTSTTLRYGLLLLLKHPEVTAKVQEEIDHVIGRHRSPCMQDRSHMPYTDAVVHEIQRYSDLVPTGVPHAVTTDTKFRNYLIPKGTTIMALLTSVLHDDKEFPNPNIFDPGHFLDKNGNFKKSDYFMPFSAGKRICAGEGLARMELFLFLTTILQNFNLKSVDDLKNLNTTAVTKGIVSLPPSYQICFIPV
Sequence of CYP2B6 (P20813 whole entry): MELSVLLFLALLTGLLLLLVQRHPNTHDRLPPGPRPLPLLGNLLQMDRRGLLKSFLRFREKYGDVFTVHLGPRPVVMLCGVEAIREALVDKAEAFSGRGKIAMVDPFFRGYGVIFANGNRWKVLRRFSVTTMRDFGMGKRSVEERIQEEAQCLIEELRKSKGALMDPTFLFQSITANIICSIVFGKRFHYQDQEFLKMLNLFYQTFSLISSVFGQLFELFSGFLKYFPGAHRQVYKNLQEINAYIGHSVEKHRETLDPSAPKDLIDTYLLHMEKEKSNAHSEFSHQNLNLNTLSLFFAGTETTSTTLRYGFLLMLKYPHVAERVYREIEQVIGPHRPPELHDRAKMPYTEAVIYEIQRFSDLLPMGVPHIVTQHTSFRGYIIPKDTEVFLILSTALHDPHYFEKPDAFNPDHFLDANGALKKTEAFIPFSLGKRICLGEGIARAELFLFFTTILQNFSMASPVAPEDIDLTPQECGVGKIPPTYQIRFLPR
Sequence of CYP3A4 (P08684 whole entry): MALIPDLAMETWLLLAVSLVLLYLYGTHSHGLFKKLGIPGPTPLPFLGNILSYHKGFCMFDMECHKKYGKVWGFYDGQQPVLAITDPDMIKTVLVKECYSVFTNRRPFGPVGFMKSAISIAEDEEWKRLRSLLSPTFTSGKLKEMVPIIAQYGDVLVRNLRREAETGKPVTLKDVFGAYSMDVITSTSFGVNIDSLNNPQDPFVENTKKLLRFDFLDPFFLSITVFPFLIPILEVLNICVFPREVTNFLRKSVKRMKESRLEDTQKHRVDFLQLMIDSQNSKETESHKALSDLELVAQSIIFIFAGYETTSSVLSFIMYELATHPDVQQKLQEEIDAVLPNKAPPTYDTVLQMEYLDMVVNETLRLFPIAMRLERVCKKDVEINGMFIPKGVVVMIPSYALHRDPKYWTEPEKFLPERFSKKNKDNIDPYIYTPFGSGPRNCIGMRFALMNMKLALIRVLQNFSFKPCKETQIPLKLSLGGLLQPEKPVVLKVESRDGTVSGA
Sequence of CYP1A2 (P05177 whole entry): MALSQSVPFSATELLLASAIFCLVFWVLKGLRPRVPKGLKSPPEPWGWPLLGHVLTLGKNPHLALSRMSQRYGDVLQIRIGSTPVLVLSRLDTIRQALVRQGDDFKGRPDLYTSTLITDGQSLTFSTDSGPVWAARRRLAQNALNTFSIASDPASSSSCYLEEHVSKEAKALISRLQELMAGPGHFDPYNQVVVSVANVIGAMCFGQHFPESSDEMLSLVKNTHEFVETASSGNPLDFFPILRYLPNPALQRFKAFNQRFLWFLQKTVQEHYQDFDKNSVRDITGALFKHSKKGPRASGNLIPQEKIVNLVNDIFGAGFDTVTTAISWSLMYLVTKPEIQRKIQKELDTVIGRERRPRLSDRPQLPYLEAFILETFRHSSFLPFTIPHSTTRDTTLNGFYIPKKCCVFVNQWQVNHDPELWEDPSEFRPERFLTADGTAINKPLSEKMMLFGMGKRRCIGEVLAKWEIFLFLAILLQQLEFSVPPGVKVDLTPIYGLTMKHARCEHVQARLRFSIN
Sequence of CYP2D6 (P10635 whole entry): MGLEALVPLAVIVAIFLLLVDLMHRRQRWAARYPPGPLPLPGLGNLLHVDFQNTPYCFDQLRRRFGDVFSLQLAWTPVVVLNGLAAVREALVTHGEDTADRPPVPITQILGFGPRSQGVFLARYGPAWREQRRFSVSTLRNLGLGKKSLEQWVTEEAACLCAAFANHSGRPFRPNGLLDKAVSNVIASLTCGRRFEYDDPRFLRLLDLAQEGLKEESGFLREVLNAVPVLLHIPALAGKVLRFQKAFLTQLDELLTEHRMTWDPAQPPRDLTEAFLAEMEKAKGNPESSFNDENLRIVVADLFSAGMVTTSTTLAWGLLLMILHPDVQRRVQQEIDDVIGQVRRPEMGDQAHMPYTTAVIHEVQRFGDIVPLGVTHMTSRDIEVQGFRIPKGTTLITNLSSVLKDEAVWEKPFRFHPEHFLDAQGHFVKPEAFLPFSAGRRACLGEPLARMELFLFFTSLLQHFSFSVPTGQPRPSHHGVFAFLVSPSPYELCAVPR
Sequence of CYP2C19 (P33261 whole entry): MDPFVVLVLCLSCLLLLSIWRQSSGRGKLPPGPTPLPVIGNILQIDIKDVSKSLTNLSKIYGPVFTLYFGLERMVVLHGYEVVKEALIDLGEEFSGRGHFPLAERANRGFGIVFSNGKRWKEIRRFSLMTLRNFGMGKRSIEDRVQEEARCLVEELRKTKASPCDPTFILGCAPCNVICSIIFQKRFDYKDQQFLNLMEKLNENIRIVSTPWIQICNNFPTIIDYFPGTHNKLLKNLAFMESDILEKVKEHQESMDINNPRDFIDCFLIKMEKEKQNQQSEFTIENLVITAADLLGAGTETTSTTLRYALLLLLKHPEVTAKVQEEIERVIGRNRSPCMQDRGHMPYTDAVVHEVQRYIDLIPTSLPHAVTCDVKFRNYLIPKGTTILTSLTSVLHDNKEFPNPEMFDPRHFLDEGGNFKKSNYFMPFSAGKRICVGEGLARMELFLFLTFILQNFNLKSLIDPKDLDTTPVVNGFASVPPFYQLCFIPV

With `COC(=O)NS(=O)(=O)c1sc(CC(C)C)c(C)c1-c1ccc(Cn2ccnc2Cl)cc1` [Compound I-34, Methyl ((3-(4-((2-chloro-1H-imidazol-1-yl)methyl)phenyl)-5-isobutyl-4-methylthiophen-2-yl)sulfonyl)carbamate] the inhibition at 10 µM (CYP2B6) was 13.7%, the inhibition at 10 µM (CYP1A2) was 2.82% and the inhibition at 10 µM (CYP2C9) was 77.3%. For the same compound, the inhibition at 10 µM (CYP2C8) was 71.8%, the inhibition at 10 µM (CYP3A4) was 3.8% and the inhibition at 10 µM (CYP2D6) was 12.6%. The inhibition at 10 µM (CYP2C19) was 36.5%, the half-life at 1 μM [1] was 45 min and the Papp A→B at 2 h, 2 μM [2] was 3.13 ×10⁻⁶ cm/s. The half-life at 1 μM [3] was 122 min.
